The record followed here is patent publication US11596639B2, “Substituted indole Mcl-1 inhibitors” (Vanderbilt University, priority 2016, dated 2023).

pKi: −log10 of the molar value. Read-outs that look alike come from different tables or passages of the source.

The target in one experiment is Mcl-1 (Homo sapiens (Human), UniProt Q07820). The experiment can be described thus: TR-FRET binding assay, FITC-Bak peptide and MBP-tagged Mcl-1. The conditions noted are these: read-out: Ki for Inhibition of Mcl-1 by TR-FRET assay. On the procedure: Compounds are diluted in DMSO in a 16-point, semilog serial dilution scheme. […] The plate was mixed and incubated for 3 hours at room temperature. […] TR-FRET signal is plotted and IC50 and Ki values are calculated in the same manner as the fluorescence polarization anisotropy based competition assays.
Sequence of Mcl-1 (Q07820 172-327): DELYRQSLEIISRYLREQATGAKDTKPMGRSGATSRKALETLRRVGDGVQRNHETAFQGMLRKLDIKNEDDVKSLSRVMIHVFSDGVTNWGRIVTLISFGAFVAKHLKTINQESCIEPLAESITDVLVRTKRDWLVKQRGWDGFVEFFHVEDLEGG
(Time-resolved FRET reads energy transfer from a long-lived donor to a nearby acceptor.)

In experiment [1] the test system is H929 human cancer cell lines. The experiment can be described thus: Cellular viability / proliferation (Cell TiterGlo, 72 h). The format is cell-based. Put shortly:
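H929 cells plated at 1,000/well in 10% FBS medium received a 2-fold serial compound dilution (top 50 μM, DMSO <1%) 24 h later. After 72 h, viability was read by CellTiter-Glo luminescence. IC50 came from a four-parameter fit.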
In general terms: Cellular ATP, detected with luciferase, serves as a proxy for viable cell number.

Where [2] appears, read: Homo sapiens, NCI-H929, 72 h, read-out: GI50 on cellular proliferation of H929 human cancer cell lines, H929 cells, 72 h, Cell TiterGlo, 10% FBS.

Broadly, the pKi is −log10 of the Ki, conventionally taken in molar units.

On to `Cc1cc(OCCCc2c3n(c4c(-c5c(C)nn(C)c5C)c(Cl)ccc24)[C@H](C)CN(c2cc(CN4CCCC4)cc4c(C(=O)O)cn(C)c24)C3=O)cc(C)c1Cl` [Example 550, (R)-7-(7-chloro-10-(3-(4-chloro-3,5-dimethylphenoxy)propyl)-4-methyl-t-oxo-6-(1,3,5-trimethyl-1H-pyrazol-4-yl)-3,4-dihydropyrazino[1,2-a]indol-2(1H)-yl)-1-methyl-5-(pyrrolidin-1-ylmethyl)-1H-indole-3-carboxylic acid], for which, at Mcl-1, the negative logarithm of the Ki (pKi) was 9.28. The GI50 in experiment [1] (H929 cells, 72 h, Cell TiterGlo, 10% FBS, read-out: GI50 on cellular proliferation of H929 human cancer cell lines) is 1.2 µM.

With `Cc1cc(N2C[C@@H](C)n3c(c(CCCOc4cc(C)c(Cl)c(C)c4)c4ccc(Cl)c(-c5c(C)nn(C)c5C)c43)C2=O)c2ncc(C(=O)O)cc2c1` [Example 658, (R)-8-(7-chloro-10-(3-(4-chloro-3,5-dimethylphenoxy)propyl)-4-methyl-1-oxo-6-(1,3,5-trimethyl-1H-pyrazol-4-yl)-3,4-dihydropyrazino[1,2-a]indol-2(1H)-yl)-6-methylquinoline-3-carboxylic acid], the negative logarithm of the Ki (pKi) at Mcl-1 was more than 9.70. Besides, the GI50 in experiment [1] (setting [2]) turned out to be 0.25 µM.

`Cc1cc(OCCCc2c3n(c4c(-c5c(C)nn(C)c5C)c(Cl)ccc24)[C@H](C)CN(c2cc(OCCOC(C)C)cc4c(C(=O)O)cn(Cc5ccccn5)c24)C3=O)cc(C)c1Cl` [Example 606, (R)-7-(7-chloro-10-(3-(4-chloro-3,5-dimethylphenoxy)propyl)-4-methyl-1-oxo-6-(1,3,5-trimethyl-1H-pyrazol-4-yl)-3,4-dihydropyrazino[1,2-a]indol-2(1H)-yl)-5-(2-isopropoxyethoxy)-1-(pyridin-2-ylmethyl)-1H-indole-3-carboxylic acid]: the pKi on Mcl-1 is 9.33. Also, in experiment [1] (setting [2]), the GI50 is 0.6 µM.

Turning to `Cc1cc(N2C[C@@H](C)n3c(c(CCCOc4cc(C)c(Cl)c(C)c4)c4ccc(Cl)c(-c5c(C)nn(C)c5C)c43)C2=O)c2c(c1)cc(C(=O)O)n2Cc1cc(N2CCCCC2)ccn1` [Example 504, (R)-7-(7-Chloro-10-(3-(4-chloro-3,5-dimethylphenoxy)propyl)-4-methyl-1-oxo-6-(1,3,5-trimethyl-1H-pyrazol-4-yl)-3,4-dihydropyrazino[1,2-a]indol-2(1H)-yl)-5-methyl-1-((4-(piperidin-1-yl)pyridin-2-yl)methyl)-1H-indole-2-carboxylic acid], the negative-log Ki (pKi) at Mcl-1 is 9.64. Also, the GI50 in experiment [1] (setting [2]) turned out to be 1 µM.

As to `Cc1cc(OCCCc2c3n(c4c(-c5c(C)nn(C)c5C)c(Cl)ccc24)[C@H](C)CN(c2cn(CC(=O)N4CCOCC4)c4ccc(-c5ncccn5)cc24)C3=O)cc(C)c1Cl` [Example 531, (R)-7-Chloro-10-(3-(4-chloro-3,5-dimethylphenoxy)propyl)-4-methyl-2-(1-(2-morpholino-2-oxoethyl)-5-(pyrimidin-2-yl)-1H-indol-3-yl)-6-(1,3,5-trimethyl-1H-pyrazol-4-yl)-3,4-dihydropyrazino[1,2-a]indol-1(2H)-one], the pKi at Mcl-1 is 9.32. The GI50 in experiment [1] (setting [2]) was 0.38 µM.

Turning to `Cc1nnn(-c2ccc3c(n2)c(N2C[C@@H](C)n4c(c(CCCOc5cc(C)c(Cl)c(C)c5)c5ccc(Cl)c(-c6c(C)nn(C)c6C)c54)C2=O)cn3C)n1` [Example 684, (R)-7-Chloro-10-(3-(4-chloro-3,5-dimethylphenoxy)propyl)-4-methyl-2-(1-methyl-5-(5-methyl-2H-tetrazol-2-yl)-1H-pyrrolo[3,2-b]pyridin-3-yl)-6-(1,3,5-trimethyl-1H-pyrazol-4-yl)-3,4-dihydropyrazino[1,2-a]indol-1(2H)-one], at Mcl-1, the pKi is 9.22. In experiment [1] (setting [2]), the GI50 is 0.52 µM.

On to `Cc1cc(OCCCc2c3n(c4c(-c5c(C)nn(C)c5C)c(Cl)ccc24)[C@H](C)CN(c2cn(C)c4ccc(-c5nc6ccccn6n5)cc24)C3=O)cc(C)c1Cl` [Example 648, (R)-2-(5-([1,2,4]Triazolo[1,5-a]pyridin-2-yl)-1-methyl-1H-indol-3-yl)-7-chloro-10-(3-(4-chloro-3,5-dimethylphenoxy)propyl)-4-methyl-6-(1,3,5-trimethyl-1H-pyrazol-4-yl)-3,4-dihydropyrazino[1,2-a]indol-1(2H)-one], for which, at Mcl-1, the negative-log Ki (pKi) is 9.64. The GI50 in experiment [1] (setting [2]) was 0.31 µM.

For `COc1ccc(N2C[C@@H](C)n3c(c(CCCOc4cc(C)c(Cl)c(C)c4)c4ccc(Cl)c(-c5c(C)n[nH]c5C)c43)C2=O)c2c1cc(C(=O)O)n2Cc1ccccn1` [Example 724, (R)-7-(7-chloro-10-(3-(4-chloro-3,5-dimethylphenoxy)propyl)-6-(3,5-dimethyl-1H-pyrazol-4-yl)-4-methyl-1-oxo-3,4-dihydropyrazino[1,2-a]indol-2(1H)-yl)-4-methoxy-1-(pyridin-2-ylmethyl)-1H-indole-2-carboxylic acid], the pKi on Mcl-1 is more than 9.70. Also, in experiment [1] (setting [2]), the GI50 was found to be 0.33 µM.

Turning to `Cc1cc(OCCCc2c3n(c4c(-c5c(C)cc(O)cc5C)c(Cl)ccc24)[C@H](C)CNC3=O)cc(C)c1Cl` [Example 488, (R)-7-chloro-10-(3-(4-chloro-3,5-dimethylphenoxy)propyl)-6-(4-hydroxy-2,6-dimethylphenyl)-4-methyl-3,4-dihydropyrazino[1,2-a]indol-1(2H)-one], at Mcl-1, the pKi was 7.41. The GI50 in experiment [1] (setting [2]) was 8.7 µM.

For `COCCOc1cc(N2C[C@@H](C)n3c(c(CCCOc4cc(C)c(Cl)c(C)c4)c4ccc(Cl)c(-c5c(C)nn(C)c5C)c43)C2=O)c2c(c1)cc(C(=O)O)n2Cc1ccccn1` [Example 537, (R)-7-(7-Chloro-10-(3-(4-chloro-3,5-dimethylphenoxy)propyl)-4-methyl-1-oxo-6-(1,3,5-trimethyl-1H-pyrazol-4-yl)-3,4-dihydropyrazino[1,2-a]indol-2(1H)-yl)-5-(2-methoxyethoxy)-1-(pyridin-2-ylmethyl)-1H-indole-2-carboxylic acid], at Mcl-1, the negative-log Ki (pKi) was more than 9.70. For the same compound, the GI50 in experiment [1] (setting [2]) was less than 0.2 µM.

For the compound `Cc1cc(N2C[C@@H](C)n3c(c(CCCOc4cc(C)c(Cl)c(C)c4)c4ccc(Cl)c(-c5c(C)nn(C)c5C)c43)C2=O)c2c(c1)cc1n2CCOC1=O` [Example 685, (R)-6-(7-chloro-10-(3-(4-chloro-3,5-dimethylphenoxy)propyl)-4-methyl-1-oxo-6-(1,3,5-trimethyl-1H-pyrazol-4-yl)-3,4-dihydropyrazino[1,2-a]indol-2(1H)-yl)-8-methyl-3,4-dihydro-1H-[1,4]oxazino[4,3-a]indol-1-one], on Mcl-1, the negative-log Ki (pKi) was 8.49. Moreover, the GI50 in experiment [1] (setting [2]) was 1.4 µM.

Consider `COCCOc1cc(N2C[C@@H](C)n3c(c(CCCOc4cc(C)c(Cl)c(C)c4)c4ccc(Cl)c(-c5c(C)ncnc5C)c43)C2=O)c2c(c1)cc(C(=O)O)n2C` [Example 539, (R)-7-(7-Chloro-10-(3-(4-chloro-3,5-dimethylphenoxy)propyl)-6-(4,6-dimethylpyrimidin-5-yl)-4-methyl-1-oxo-3,4-dihydropyrazino[1,2-a]indol-2(1H)-yl)-5-(2-methoxyethoxy)-1-methyl-1H-indole-2-carboxylic acid], for which the pKi at Mcl-1 was more than 9.70. Moreover, the GI50 in experiment [1] (setting [2]) was less than 0.2 µM.

As for `Cc1cc(N2C[C@@H](C)n3c(c(CCCOc4cc(C)c(Cl)c(C)c4)c4ccc(Cl)c(-c5c(C)nn(C)c5C)c43)C2=O)c2c(c1)cc(C(=O)O)n2Cc1cc(C#N)ccn1` [Example 556, (R)-7-(7-chloro-10-(3-(4-chloro-3,5-dimethylphenoxy)propyl)-4-methyl-1-oxo-6-(1,3,5-trimethyl-1H-pyrazol-4-yl)-3,4-dihydropyrazino[1,2-a]indol-2(1H)-yl)-1-((4-cyanopyridin-2-yl)methyl)-5-methyl-1H-indole-2-carboxylic acid], the pKi on Mcl-1 is more than 9.70. The GI50 in experiment [1] (setting [2]) stood at 0.28 µM.
